Laboratory results as given in US12269793B2, “Affinity illudofulvene conjugates” (AF Chemicals, LLC, priority 2019, dated 2025).
Read-outs that look alike come from different tables or passages of the source. *1 amine or outer side, *2 acyl side, *3 side chain or, on linkers, in order; H or OH if unused. Where a SMILES comes first, the peptide text is derived from it. The star is where a group is joined. X2 = CC1=C(CCCN*)C2=C(C)C3(CC3)[C@@](C)(O)C(=O)C2=C1; Morpholide = C1CN(*)CCO1; CO = O=C([*:1])[*:2]

What was measured:
MCF7 (ER positive) = assay type: cell-based; details: MCF7 (ER positive) versus HT29 (ER negative), result in words
Excerpt: (§1) MCF7 over express estrogen alpha-receptors.
(§2) MCF7 cells over express estrogen alpha-receptors.

[1] = test system: MV522 Target Cell Line (lung-derived adenocarcinoma); assay: cells; details: MV522, 2 h, read-out: Mean IC50 value
in vitro = details: human
Excerpt: as §1, §2

[2] = test system: 8392B Nontarget Cell Line (hematopoietic); assay: cells; details: 2 h, read-out: Mean IC50 value
[3] = test system: MV522 Target Cell Line (lung-derived adenocarcinoma); assay: cells; details: MV522, 48 h, read-out: Mean IC50 value
[4] = test system: 8392B Nontarget Cell Line (hematopoietic); assay: cells; details: 48 h, read-out: Mean IC50 value
[5] = test system: 8392B Nontarget Cell Line (hematopoietic); details: read-out: Mean IC50 value, 48 hr exposure, ± SD, N = 3 unless otherwise indicated
[6] = test system: 8392B Nontarget Cell Line (hematopoietic); details: read-out: Mean IC50 value, 2 hr exposure, ± SD, N = 3 unless otherwise indicated
[7] = test system: MV522 Target Cell Line (lung-derived adenocarcinoma); details: read-out: Mean IC50 value; MV522 Target Cell Line, 2 hr exposure, ± SD, N = 3 unless otherwise indicated

| SMILES | preferential killing of ER positive cells (MCF7 (ER positive)) | IC50 [1] [µM] | IC50 (in vitro) [µM] | IC50 [2] [µM] | IC50 [3] [nM] | IC50 [4] [µM] | IC50 [5] [µM] | IC50 [6] [µM] | IC50 [7] [µM] |
| --- | --- | --- | --- | --- | --- | --- | --- | --- | --- |
| CC1=C2C(=CC(C)(C)[C@@H]2O)C(=O)[C@](C)(O)C12CC2 [Illudin M, reference compound] | killed both ER negative and ER positive cells to the same extent | – | – | – | – | – | – | – | – |
| CC1=C(CCC(=O)Oc2ccc3c(c2)CCC2C3CC[C@]3(C)C(O)CCC23)C2=C(C)C3(CC3)[C@@](C)(O)C(=O)C2=C1 (stereo partly shown) [Analog 108] | – | 12.3 ± 2.3 | > 55 | > 55 | 520 ± 50 | – | – | – | – |
| CC1=C(CCC(=O)Oc2ccc3c(c2)CCC2C3CC[C@]3(C)C(=O)CCC23)C2=C(C)C3(CC3)[C@@](C)(O)C(=O)C2=C1 (stereo partly shown) [Analog 110] | preferentially killed | > 55 | > 19 | > 55 | – | 25.3 ± 2.1 | – | – | – |
| CC1=C(CCCNC(=O)[C@H](CC(C)C)NC(=O)[C@H](CCC(N)=O)NC(=O)[C@H](CC(C)C)NC(=O)[C@H](CCCCN)NC(=O)[C@H](CO)NC(=O)[C@H](CO)NC(=O)[C@H](Cc2c[nH]cn2)NC(=O)N2CCOCC2)C2=C(C)C3(CC3)[C@@](C)(O)C(=O)C2=C1 [Analog 221] ({Morpholide-CO}-HSSKLQL-X2) | – | – | – | – | – | – | > 21 | > 21 | > 21 |
